This is an account of results in article PMC3025038 (Organic & biomolecular chemistry, 2009).

SMILES strings stand for the structures.

The conditions of series [1]: mice; liver, spleen, kidney bone marrow, or brain tissue; cited from earlier work.
Series [2] deals with T1, KOP receptors (Homo sapiens, UniProt P41145). In kind it is binding.
Series [3] addresses T1, KOP receptors. The experiment in a line: biochemical. In kind it is biochemical. As to conditions: for Emax: read-out: KOP Emax.

T1 sequence (P41145 whole entry): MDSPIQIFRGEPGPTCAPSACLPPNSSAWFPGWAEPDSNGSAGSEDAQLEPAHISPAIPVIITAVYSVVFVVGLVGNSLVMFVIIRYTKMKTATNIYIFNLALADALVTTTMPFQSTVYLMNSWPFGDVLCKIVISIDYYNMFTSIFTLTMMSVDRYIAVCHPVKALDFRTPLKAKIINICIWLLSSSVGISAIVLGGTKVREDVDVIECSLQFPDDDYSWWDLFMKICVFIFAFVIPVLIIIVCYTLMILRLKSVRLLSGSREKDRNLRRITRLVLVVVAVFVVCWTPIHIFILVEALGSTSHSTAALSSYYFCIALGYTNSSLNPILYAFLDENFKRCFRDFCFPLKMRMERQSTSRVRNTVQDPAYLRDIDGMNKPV

As for `COC(=O)[C@@H]1C[C@H](OC(C)=O)C(=O)[C@H]2[C@@]1(C)CC[C@H]1C(=O)O[C@H](c3ccoc3)C[C@]21C` [Compound 1, salvinorin A], the “histological differences versus control animals” value in series [1] is recorded as “no histological differences”.

One may read the Emax as the maximal effect, on the per cent scale that the assay sets. As to `COC(=O)[C@@H]1C[C@H](OC(C)=O)C(=O)[C@H]2[C@@]1(C)CC[C@H]1C(=O)O[C@H](C(=O)N3CCCCC3)C[C@]21C` [Compound 21, (2S,4aR,6aR,7R,9S,10aS,10bR)-methyl 9-acetoxy-6a,10b-dimethyl-4,10-dioxo-2-(piperidine-1-carbonyl)dodecahydro-1H-benzo[f]isochromene-7-carboxylate], the “fold increase in affinity for KOP receptors” value at KOP receptors [2] stood at 9 fold. Also, at KOP receptors [3], the “fold less active than 1 as agonists” value is “approximately 100 fold”, the “functional character at KOPs (in words)” value is given as “selective partial agonists” and the Emax was found to be 85 ± 13%.

Regarding `COC(=O)[C@@H]1C[C@H](OC(C)=O)C(=O)[C@H]2[C@@]1(C)CC[C@H]1C(=O)O[C@H](C(=O)N3CCSCC3)C[C@]21C` [Compound 23, (2S,4aR,6aR,7R,9S,10aS,10bR)-methyl 9-acetoxy-6a,10b-dimethyl-4,10-dioxo-2-(thiomorpholine-4-carbonyl)dodecahydro-1H-benzo[f]isochromene-7-carboxylate], on KOP receptors [3], the “fold less active than 1 as agonists” value was “approximately 100 fold”, the “functional character at KOPs (in words)” value was “selective partial agonists” and the maximal effect (Emax) came out at 57 ± 6%.
